Experiment [1] deals with dopamine D2 receptor (Rattus norvegicus, UniProt P61169). Briefly: biochemical. Type of experiment: binding, rat (male Wistar). The settings on record: for IC50: 2 nM [3H](-)-sulpiride, rat striata membrane, pH 7.7, 37° C., 10 min; for inhibition at 1 µM: pH 7.7, read-out: Dopamine D2 receptor Inhibition % (1 μM). How it is done: (§1) Male Wistar rats were employed as test animals.
(§2) Radiolabeled ^3 H! […] (-)-sulpiride was used as a compound specifically binding to dopamine D2 receptor.
(§3) Reactions of these ^3 H! compounds binding to the corresponding receptors were performed respectively in accordance with the following methods (1) and (2) described in Molecular Pharmacology, 32, 772 (1987), Journal of Pharmacy and Pharmacology, 32, 441 (1980) and Molecular Pharmacology, 32, 820 (1987).
(2) ^3 H! (-)-sulpiride binding:
(-)-sulpiride and a test drug were incubated in 1 ml of a 50 mM Tris-HCl buffer solution (pH 7.7) at 37° C. for 10 minutes.
(§4) After the completion of each reaction, the reaction mixture was filtered with suction into a glass filter (GF/B) and the radioactivity of the filter paper was measured with a liquid scintillation spectrometer.
(§5) (-)-sulpiride, and the difference between the total binding (the value measured by adding no test drug) and the nonspecific binding was referred to as the specific binding.
(§6) By reacting the ^3 H! compound at a definite concentration (2 nM) with the test drugs at various concentrations under the conditions as specified in the above (1) and (2), inhibition curves were obtained. On the basis of these inhibition curves, the concentration of each test drug causing 50% inhibition of the specific binding (IC50) was determined.

Experiment [2] has as its target sigma receptor (Rattus norvegicus, UniProt Q9R0C9). Briefly: biochemical. It counts as binding, rat (male Wistar). As to conditions: for IC50: 2 nM [3H](+)-3-PPP, rat whole brain membrane, pH 8.0, 21° C., 90 min; for inhibition at 1 µM: pH 8, read-out: Sigma receptor Inhibition % (1 μM). How it is done:
as §1, §2, §3, §4, §5, §6

Experiment [3] concerns (+)-SKF 10047-induced stereotypical behavior. Kind of experiment: Test on action on (+)-SKF 10047-induced abnormal (stereotypical) behaviors. It counts as in vivo, mouse (male ICR). As to conditions: Mus musculus; oral, 30 min (35 min for drug C) before 30 mg/kg i.p. (+)-SKF 10047; scores over 40 min; read-out: ED25 (stereotypical behavior suppression). The procedure:
TEST EXAMPLE 2 Test on Action on (+)-[…] Abnormal Behaviors! Male ICR mice (Nippon Charles River) aged 4 to 5 weeks were divided into groups each having 10 animals and used. Each animal was separately fed in a small transparent cage and fully familiarized with its environment. To the animals, test drugs […] % gum arabic at various concentrations were orally administered. […] Since 10 minutes thereafter, stereotypical behavior scores were measured for 40 minutes at intervals of 5 minutes. (Test drug) (Stereotypical behavior score) 0: normal behaviors 1: sniffing, standing up 2: discontinuous movement, sniffing stronger than 1 3: circling, moving backward 4: continuous circling 5: bending and stretching of limbs, head and neck The stereotypical behavior suppression ratio was determined on the basis of the sum of the scores of the test groups measured 8 times within 40 minutes by referring the sum of the score of a solvent (distilled water for injection) administered-group measured 8 times within 40 minutes as to 100%. Each ED25 value was calculated by determining the slope of a line of the suppression ratio formed by the method of least squares.

For experiment [4], the target named is sigma receptor. The settings on record: rimcazole, cited from European Journal of Pharmacology, 155, 345 (1988); cited from earlier work.
The target in experiment [5] is dopamine D2 receptor. As to conditions: rimcazole, cited; value for [3H] spiperone binding; cited from earlier work.
The test system of a further experiment is dopamine autoreceptor. The settings on record: reported in literature, cited from earlier work.

The text below walks through data of US5502202A, “Aminoalkylthiazole derivative” (Taisho Pharmaceutical Co., Ltd., priority 1991, dated 1996).

Molecules are shown by their SMILES. Structures can show the parent of a compound that is named as a salt.

dopamine D2 receptor (Rattus norvegicus, UniProt P61169), sequence (P61169 whole entry): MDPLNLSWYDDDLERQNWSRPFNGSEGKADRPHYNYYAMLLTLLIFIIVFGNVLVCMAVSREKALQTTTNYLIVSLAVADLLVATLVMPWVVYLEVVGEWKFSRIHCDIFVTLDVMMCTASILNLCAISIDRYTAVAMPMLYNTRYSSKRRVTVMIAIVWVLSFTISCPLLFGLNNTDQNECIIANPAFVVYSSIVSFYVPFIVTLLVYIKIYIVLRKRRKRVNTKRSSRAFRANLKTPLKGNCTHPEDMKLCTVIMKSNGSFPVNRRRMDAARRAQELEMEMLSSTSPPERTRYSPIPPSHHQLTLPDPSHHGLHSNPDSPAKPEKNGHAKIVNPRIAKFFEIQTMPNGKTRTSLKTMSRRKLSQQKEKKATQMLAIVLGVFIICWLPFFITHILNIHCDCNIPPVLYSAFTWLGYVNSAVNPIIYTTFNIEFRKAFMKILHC
sigma receptor (Rattus norvegicus, UniProt Q9R0C9), sequence (Q9R0C9 whole entry): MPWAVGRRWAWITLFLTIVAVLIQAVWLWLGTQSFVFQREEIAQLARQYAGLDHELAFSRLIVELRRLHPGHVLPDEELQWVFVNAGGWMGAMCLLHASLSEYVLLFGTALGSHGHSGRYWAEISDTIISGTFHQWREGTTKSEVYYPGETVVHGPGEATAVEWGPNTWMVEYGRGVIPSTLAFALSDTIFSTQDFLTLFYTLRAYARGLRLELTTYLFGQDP

Take `CCCCCCCCN(CCCCCCCC)CCc1sc(N)nc1-c1ccc(Br)cc1` [Test Drug C (Table 1), 2Amino-4-(4-bromophenyl)-5-(2-di-n-octylaminoethyl)-thiazole dihydrochloride]: on dopamine D2 receptor [1], the IC50 is above 1 µM and the inhibition at 1 µM was -31%. Besides, on sigma receptor [2], inhibition was half-maximal at 0.0032 µM (IC50) and the inhibition at 1 µM was determined as 99.7%.

Consider `CCCCCCN(CCCCCC)CCc1sc(N)nc1-c1ccc(Br)cc1.Cl.Cl` [Test Drug B (Table 1), 2-Amino-4-(4-bromophenyl)-5-(2-di-n-hexylaminoethyl)thiazole dihydrochloride], for which the concentration for half-maximal inhibition (IC50) is above 1 µM against dopamine D2 receptor [1] and 0.0016 µM on sigma receptor [2]. Further, the inhibition at 1 µM was -33.3% on dopamine D2 receptor [1] and 100% at sigma receptor [2]. In addition, in experiment [3], the ED25 was 0.019 mg/kg.

With `CCCN1CCCC(c2cccc(O)c2)C1` (single isomer, unassigned) [3-PPP, 3-(3-hydroxyphenyl)-N-n-propylpiperidine, reference compound], on sigma receptor [2], the midpoint of inhibition, the IC50, lay at 0.0243 µM.

As for `CCCCCN(CCCCC)CCc1sc(N)nc1-c1ccc(Br)cc1` [Test Drug A (Table 1), 2Amino-4-(4-bromophenyl)-5-(2-di-n-pentylaminoethyl)-thiazole dihydrochloride], on sigma receptor [2], the IC50 was 0.0087 µM and the inhibition at 1 µM amounted to 93.1%.

Consider `C[C@@H]1CN(CCCn2c3ccccc3c3ccccc32)C[C@H](C)N1` [Rimcazole], for which the figures for the IC50 at sigma receptor [4] and at dopamine D2 receptor [5] were 1.46 µM and 86 µM, respectively. The ED25 in experiment [3] is 37.9 mg/kg.

For the compound `C=CCN1CCc2nc(N)sc2CC1` [talipexole], the “effect on dopamine nerve system (in words)” value with dopamine autoreceptor (by stimulating the presynaptic autoreceptor) is “suppresses nerve ignition and biosynthesis and liberation of dopamine”. The “selective dopamine autoreceptor agonism (in words)” value in the experiment with dopamine autoreceptor is “selective dopamine autoreceptor agonist”.

Consider `OC(CCCN1CCN(c2ncc(F)cn2)CC1)c1ccc(F)cc1` (stereo not drawn) [BMY 14802], for which the ED25 in experiment [3] came to 7.6 mg/kg.

The IC50 is the midpoint of a concentration-inhibition curve. As a reminder, the inhibition is the change of the read-out against control, counted positive when it falls.
